Publication PMC9873280, “In silico identification and biological evaluation of a selective MAP4K4 inhibitor against pancreatic cancer” (Journal of Enzyme Inhibition and Medicinal Chemistry, 2023)

Experiments:
Type in all cases: biochemical
MAP4K4 [1] = target: T1, MAP4K4 (Homo sapiens, UniProt O95819); assay: Z'LYTE kinase activity assay
T1 construct: recombinant kinase of the ThermoFisher SelectScreen service
Text: Z'LYTE kinase activity assay on MAP4K4

MAP4K4 [2] = target: T1, MAP4K4; assay: Z'LYTE kinase activity assay; settings: 1 h incubation with ATP
MAP4K7 = target: T2, MAP4K7 (Homo sapiens, UniProt Q9UKE5); assay: kinase profiling panel; settings: read-out: % inhibition at 150 nM
T2 construct: gene TNIK; recombinant kinase of a commercial 81-kinase panel
T2 sequence (Q9UKE5 whole entry): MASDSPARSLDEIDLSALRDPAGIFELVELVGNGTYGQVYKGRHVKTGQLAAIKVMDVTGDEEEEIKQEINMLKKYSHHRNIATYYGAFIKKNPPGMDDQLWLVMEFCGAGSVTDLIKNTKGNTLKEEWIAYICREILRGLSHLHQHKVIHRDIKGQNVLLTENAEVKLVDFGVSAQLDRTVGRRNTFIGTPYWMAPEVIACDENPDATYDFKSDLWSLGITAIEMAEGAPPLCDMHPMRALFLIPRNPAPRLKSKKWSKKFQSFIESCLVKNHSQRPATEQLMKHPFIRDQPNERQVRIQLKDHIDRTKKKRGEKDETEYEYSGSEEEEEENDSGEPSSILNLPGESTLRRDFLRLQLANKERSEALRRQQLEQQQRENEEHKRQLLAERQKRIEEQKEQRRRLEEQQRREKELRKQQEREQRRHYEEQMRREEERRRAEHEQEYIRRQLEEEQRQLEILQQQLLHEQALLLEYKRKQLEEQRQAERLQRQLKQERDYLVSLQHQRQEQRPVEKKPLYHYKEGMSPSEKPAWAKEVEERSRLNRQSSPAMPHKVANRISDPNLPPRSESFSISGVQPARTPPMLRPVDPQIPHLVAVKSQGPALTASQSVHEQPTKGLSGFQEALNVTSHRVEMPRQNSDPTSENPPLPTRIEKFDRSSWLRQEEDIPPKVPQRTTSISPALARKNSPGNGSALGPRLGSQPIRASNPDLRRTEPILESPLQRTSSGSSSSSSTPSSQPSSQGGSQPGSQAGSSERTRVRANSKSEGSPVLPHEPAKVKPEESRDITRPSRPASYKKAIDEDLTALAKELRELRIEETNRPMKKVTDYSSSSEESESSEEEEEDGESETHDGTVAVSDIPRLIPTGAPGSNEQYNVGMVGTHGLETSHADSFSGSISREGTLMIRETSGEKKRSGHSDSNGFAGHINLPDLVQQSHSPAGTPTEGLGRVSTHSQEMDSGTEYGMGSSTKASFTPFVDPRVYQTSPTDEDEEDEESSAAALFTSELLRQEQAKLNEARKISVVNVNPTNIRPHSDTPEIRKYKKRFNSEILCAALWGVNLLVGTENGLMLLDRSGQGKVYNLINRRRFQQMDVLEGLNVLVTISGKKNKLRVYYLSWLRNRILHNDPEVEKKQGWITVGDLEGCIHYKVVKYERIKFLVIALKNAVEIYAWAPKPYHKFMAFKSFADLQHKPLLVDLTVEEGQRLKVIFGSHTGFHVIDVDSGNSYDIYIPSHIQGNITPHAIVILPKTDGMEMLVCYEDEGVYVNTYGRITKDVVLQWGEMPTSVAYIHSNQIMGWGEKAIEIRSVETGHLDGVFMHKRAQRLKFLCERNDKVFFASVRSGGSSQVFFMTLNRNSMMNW

MAP4K6 = target: T3, MAP4K6 (Homo sapiens, UniProt Q8N4C8); assay: kinase profiling panel; settings: read-out: % inhibition at 150 nM
T3 construct: gene MINK1; recombinant kinase of a commercial 81-kinase panel
T3 sequence (Q8N4C8 whole entry): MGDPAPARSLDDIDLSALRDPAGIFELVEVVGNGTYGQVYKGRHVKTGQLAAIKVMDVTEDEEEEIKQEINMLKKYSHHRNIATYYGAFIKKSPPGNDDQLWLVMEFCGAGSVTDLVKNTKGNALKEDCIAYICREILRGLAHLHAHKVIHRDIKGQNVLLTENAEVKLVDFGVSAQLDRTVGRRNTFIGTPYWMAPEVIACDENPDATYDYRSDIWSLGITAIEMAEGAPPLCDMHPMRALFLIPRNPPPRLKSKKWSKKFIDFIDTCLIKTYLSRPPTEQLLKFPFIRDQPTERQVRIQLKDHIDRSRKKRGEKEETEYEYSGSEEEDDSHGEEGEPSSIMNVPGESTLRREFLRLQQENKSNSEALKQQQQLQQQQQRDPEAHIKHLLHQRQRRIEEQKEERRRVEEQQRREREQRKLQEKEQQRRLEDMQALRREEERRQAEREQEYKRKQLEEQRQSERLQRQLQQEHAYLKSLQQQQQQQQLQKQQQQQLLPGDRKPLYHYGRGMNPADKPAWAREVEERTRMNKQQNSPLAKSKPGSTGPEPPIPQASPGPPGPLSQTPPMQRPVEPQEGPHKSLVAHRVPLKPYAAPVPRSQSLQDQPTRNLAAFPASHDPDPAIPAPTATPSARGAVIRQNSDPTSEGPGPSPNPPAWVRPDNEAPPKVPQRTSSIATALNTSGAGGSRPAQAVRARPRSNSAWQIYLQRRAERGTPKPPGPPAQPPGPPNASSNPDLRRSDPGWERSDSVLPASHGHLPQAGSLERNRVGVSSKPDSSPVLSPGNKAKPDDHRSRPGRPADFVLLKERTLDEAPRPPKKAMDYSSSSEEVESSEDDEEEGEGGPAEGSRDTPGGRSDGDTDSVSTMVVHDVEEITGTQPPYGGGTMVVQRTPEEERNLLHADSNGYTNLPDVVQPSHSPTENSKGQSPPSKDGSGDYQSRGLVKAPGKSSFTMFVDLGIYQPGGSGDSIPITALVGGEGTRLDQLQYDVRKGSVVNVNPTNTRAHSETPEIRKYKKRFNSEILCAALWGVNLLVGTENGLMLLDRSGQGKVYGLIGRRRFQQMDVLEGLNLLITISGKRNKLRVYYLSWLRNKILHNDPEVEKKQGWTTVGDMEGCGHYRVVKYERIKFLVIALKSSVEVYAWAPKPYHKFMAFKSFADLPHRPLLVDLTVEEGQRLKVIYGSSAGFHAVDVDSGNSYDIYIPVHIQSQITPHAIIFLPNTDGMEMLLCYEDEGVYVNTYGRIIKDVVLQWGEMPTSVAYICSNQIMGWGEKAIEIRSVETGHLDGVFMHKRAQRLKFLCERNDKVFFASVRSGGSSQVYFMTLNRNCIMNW

MAP4K5 = target: T4, MAP4K5 (Homo sapiens, UniProt Q9Y4K4); assay: kinase profiling panel; settings: read-out: % inhibition at 150 nM
T4 construct: recombinant kinase of a commercial 81-kinase panel
T4 sequence (Q9Y4K4 whole entry): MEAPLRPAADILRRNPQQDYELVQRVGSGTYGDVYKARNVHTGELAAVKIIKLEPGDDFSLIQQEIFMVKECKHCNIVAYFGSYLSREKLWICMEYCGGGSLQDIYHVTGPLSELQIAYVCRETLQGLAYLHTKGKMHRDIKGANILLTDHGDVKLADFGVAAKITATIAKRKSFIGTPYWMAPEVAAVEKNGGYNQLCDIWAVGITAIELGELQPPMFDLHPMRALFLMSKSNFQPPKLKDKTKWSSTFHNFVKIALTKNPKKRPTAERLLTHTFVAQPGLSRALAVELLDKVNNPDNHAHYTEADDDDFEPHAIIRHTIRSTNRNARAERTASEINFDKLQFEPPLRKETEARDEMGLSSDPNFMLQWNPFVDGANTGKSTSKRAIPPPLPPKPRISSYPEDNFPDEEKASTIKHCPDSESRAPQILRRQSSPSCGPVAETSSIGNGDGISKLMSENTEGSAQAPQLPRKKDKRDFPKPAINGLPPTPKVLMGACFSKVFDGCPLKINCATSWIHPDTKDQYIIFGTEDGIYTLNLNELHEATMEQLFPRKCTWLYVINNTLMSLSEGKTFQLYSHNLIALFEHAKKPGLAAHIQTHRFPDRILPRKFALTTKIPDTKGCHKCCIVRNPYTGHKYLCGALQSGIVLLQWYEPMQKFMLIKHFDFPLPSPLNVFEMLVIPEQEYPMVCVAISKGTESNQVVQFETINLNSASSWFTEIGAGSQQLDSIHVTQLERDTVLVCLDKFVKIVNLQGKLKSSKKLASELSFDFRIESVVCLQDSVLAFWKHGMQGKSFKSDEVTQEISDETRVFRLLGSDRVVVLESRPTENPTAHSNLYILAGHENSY

T1 sequence (O95819 2-1239): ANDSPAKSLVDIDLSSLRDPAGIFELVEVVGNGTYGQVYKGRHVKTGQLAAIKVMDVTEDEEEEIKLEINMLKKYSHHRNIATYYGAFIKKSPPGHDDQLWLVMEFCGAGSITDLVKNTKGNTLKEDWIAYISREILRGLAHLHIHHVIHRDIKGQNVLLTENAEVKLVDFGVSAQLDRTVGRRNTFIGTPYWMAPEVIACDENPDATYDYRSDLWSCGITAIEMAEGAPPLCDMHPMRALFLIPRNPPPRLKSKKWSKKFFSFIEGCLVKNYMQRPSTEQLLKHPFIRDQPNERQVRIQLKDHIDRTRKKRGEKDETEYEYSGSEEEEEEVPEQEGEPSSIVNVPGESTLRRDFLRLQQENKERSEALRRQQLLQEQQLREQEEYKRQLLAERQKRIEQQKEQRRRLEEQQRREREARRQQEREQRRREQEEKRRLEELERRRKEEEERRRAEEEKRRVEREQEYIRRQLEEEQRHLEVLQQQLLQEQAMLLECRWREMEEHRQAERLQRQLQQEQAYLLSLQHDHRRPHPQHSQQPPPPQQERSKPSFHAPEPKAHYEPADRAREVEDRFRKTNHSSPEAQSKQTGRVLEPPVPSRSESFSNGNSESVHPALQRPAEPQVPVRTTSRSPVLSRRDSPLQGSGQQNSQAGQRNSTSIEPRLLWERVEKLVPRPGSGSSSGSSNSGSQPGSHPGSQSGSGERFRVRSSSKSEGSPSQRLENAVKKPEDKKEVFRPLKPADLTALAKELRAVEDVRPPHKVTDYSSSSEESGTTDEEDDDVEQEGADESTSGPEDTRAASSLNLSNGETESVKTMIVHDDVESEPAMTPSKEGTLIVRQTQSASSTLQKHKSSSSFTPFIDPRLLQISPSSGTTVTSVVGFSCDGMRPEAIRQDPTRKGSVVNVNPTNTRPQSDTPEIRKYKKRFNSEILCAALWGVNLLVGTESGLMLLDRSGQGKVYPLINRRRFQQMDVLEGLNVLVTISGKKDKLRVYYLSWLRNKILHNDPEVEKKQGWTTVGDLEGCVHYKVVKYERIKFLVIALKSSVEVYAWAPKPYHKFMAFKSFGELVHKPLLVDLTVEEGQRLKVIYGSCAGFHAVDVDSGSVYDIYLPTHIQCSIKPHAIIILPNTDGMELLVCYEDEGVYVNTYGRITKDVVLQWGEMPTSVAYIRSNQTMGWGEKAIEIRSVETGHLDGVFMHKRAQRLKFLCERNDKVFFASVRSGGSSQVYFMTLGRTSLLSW

inhibition at 1 µM (MAP4K4 [1]) [%] | IC50 (MAP4K4 [2]) [nM] | Compound | further results
68 |  | COc1ccccc1CNC(=O)c1ccc2c(c1)NC(=O)C(=Cc1ccc(Cl)cc1)O2 [F389-0092] | 
70 |  | COc1cccc(CNC(=O)c2ccc3c(c2)NC(=O)C(=Cc2ccc(Cl)cc2)O3)c1 [F389-0093] | 
72 |  | O=C1Nc2cc(C(=O)NCc3ccccc3F)ccc2OC1=Cc1ccc(Cl)cc1 [F389-0161] | 
67 |  | CCOc1cc(CNC(=O)c2ccc3c(c2)NC(=O)C(=Cc2ccc(Cl)cc2)O3)ccc1OC [F389-0164] | 
 | 276 | CN1CCN(CCNC(=O)c2ccc3c(c2)NC(=O)C(=Cc2ccc(Cl)cc2)O3)CC1 [F389-0167] | 
 | 337 | CCOc1ccc(CNC(=O)c2ccc3c(c2)NC(=O)C(=Cc2ccc(Cl)cc2)O3)cc1OC [F389-0169] | 
 | 334 | O=C1Nc2cc(C(=O)NCc3cccc(F)c3)ccc2OC1=Cc1ccc(Cl)cc1 [F389-0183] | 
57 |  | O=C1Nc2cc(C(=O)NCc3ccccc3Cl)ccc2OC1=Cc1cccc(Cl)c1 [F389-0592] | 
 | 189 | COc1ccc(CCNC(=O)c2ccc3c(c2)NC(=O)C(=Cc2cccc(Cl)c2)O3)cc1OC [F389-0604] | 
59 |  | COc1cccc(CNC(=O)c2ccc3c(c2)NC(=O)C(=Cc2cccc(Cl)c2)O3)c1 [F389-0669] | 
57 |  | CCOc1ccccc1CNC(=O)c1ccc2c(c1)NC(=O)C(=Cc1cccc(Cl)c1)O2 [F389-0738] | 
 | 384 | CCOc1ccc(CNC(=O)c2ccc3c(c2)NC(=O)C(=Cc2cccc(Cl)c2)O3)cc1OC [F389-0745] | 
 | 121 | CSc1ccc(CNC(=O)c2ccc3c(c2)NC(=O)C(=Cc2cccc(Cl)c2)O3)cc1 [F389-0746] | inhibition at 0.15 µM (MAP4K7): 27%; inhibition at 0.15 µM (MAP4K6): 44%; inhibition at 0.15 µM (MAP4K5): 17%
67 |  | CCOc1ccc(CNC(=O)c2ccc3c(c2)NC(=O)C(=Cc2cccc(Cl)c2)O3)cc1 [F389-0750] | 
61 |  | O=C1Nc2cc(C(=O)NCc3cccc(F)c3)ccc2OC1=Cc1cccc(Cl)c1 [F389-0759] | 
